For data set [1], the system named is experimental bronchial spasms caused by acetyl choline. Briefly: Bronchospasmolytic action, acetyl choline-induced bronchial spasm (Konzett and Roessler). The class given is in vivo, guinea pig. To be noted: Cavia porcellus, urethane-anaesthetized guinea pigs, dose reducing spasm to 50%, read-out: Bronchospasmolytic action (ED50) as compared with acetyl choline. The procedure:
(§1) The test substances were administered in an aqueous solution either by the intravenous (i.v.) or the intraduodenal (i.d.) route. Water-insoluble compounds were applied i.d. in carboxymethyl cellulose suspensions.

Data set [2] has as its system experimental bronchial spasms caused by histamine. Briefly: Bronchospasmolytic action, histamine-induced bronchial spasm (Konzett and Roessler). The settings on record: Cavia porcellus, urethane-anaesthetized guinea pigs, dose reducing spasm to 50%, read-out: Bronchospasmolytic action (ED50) as compared with histamine. The format is in vivo, guinea pig. The procedure:
as §1

For data set [3], the system named is experimental bronchial spasms caused by serotonin. The data set can be described thus: Bronchospasmolytic action, serotonin-induced bronchial spasm (Konzett and Roessler). The settings on record: Cavia porcellus, urethane-anaesthetized guinea pigs, dose reducing spasm to 50%, read-out: Bronchospasmolytic action (ED50) as compared with serotonin. The class given is in vivo, guinea pig. On the procedure: as §1

A short description of a further data set: in vivo. To be noted: mouse, ip. The procedure:
The LD50 values or the LD50 ranges were determined according to common standards via the mortality occurring over 7 days with NMRI mice following a single intraperitoneal (i.p.) administration.

Structures can show the parent of a compound that is named as a salt. Where two headings read alike, the source gives them in different places.

Broadly, the ED50 is the dose at which the effect has come halfway, by size or by number of responders. As a reminder, the LD50 is the dose expected to kill half of the subjects tested. The low end stands for a more toxic substance, the high end for a less toxic substance. Regarding `Cc1cc(N2CCSCC2)c([N+](=O)[O-])c(C)n1` [Example 1, 4-(2,6-Dimethyl-3-nitro-4-pyridyl)-thiomorpholinohydrochloride], the 50% effective dose (ED50) is 1.47 mg/kg in data set [1] (iv); 4.13 mg/kg in data set [1] (i.d. (intraduodenal)); 1.05 mg/kg in data set [2] (iv); 2.6 mg/kg in data set [2] (i.d. (intraduodenal)); 1.32 mg/kg in data set [3] (iv); 2.52 mg/kg in data set [3] (i.d. (intraduodenal)). This compound also showed an LD50 at 168 h in the data set “in vivo” of 160 mg/kg.
`Cc1cc(N2CCOCC2)c([N+](=O)[O-])c(C)n1` [Example 9]: the ED50 in data set [1] (iv) was in the range of 3 to 10 mg/kg; in data set [2] (iv), 1 to 3 mg/kg. Besides, the LD50 at 168 h in “in vivo” fell in the range of 300 to 1000 mg/kg.
Take `Cc1cc(N2CCSCC2)c(C#N)c(C)n1` [Example 13]: the 50% effective dose (ED50) in data set [1] (iv) was 3 mg/kg; in data set [1] (i.d. (intraduodenal)), 3 to 10 mg/kg; in data set [2] (iv), 1 to 3 mg/kg; in data set [2] (i.d. (intraduodenal)), 1 to 3 mg/kg; in data set [3] (iv), 3 mg/kg. The LD50 at 168 h in “in vivo” was 150 to 300 mg/kg.
As for `CCCc1cc(N2CCSCC2)c([N+](=O)[O-])c(CCC)n1` [Example 14], the 50% effective dose (ED50) in data set [1] (iv) is 1 to 3 mg/kg; in data set [2] (iv), 3 mg/kg; in data set [3] (iv), 3 to 10 mg/kg. Also, the LD50 at 168 h in the data set “in vivo” is 300 to 600 mg/kg.
On to `Cc1cc(N2CCSC(C)C2)c([N+](=O)[O-])c(C)n1` (centres unmarked) [Example 15], for which the 50% effective dose (ED50) in data set [1] (iv) and in data set [2] (iv) was 3 to 10 mg/kg throughout. In the data set “in vivo”, this compound displayed an LD50 at 168 h of 150 to 300 mg/kg.
As for `COC(CNc1cc(C)nc(C)c1[N+](=O)[O-])OC` [Example 17], the median effective dose (ED50) in data set [1] (iv) was 3 to 10 mg/kg; in data set [2] (iv), above 10 mg/kg. The compound further registered an LD50 at 168 h in the data set “in vivo” of 400 to 800 mg/kg.
As to `Cc1cc(NCCCl)c([N+](=O)[O-])c(C)n1` [Example 18], the ED50 in data set [1] (iv) was 1 to 3 mg/kg; in data set [2] (iv), 3 mg/kg; in data set [3] (iv) it was 1 to 3 mg/kg. Further, the 50% lethal dose (LD50) at 168 h in the data set “in vivo” lay within 150 to 300 mg/kg.
For `Cc1cc(NCc2ccc3c(c2)OCO3)c([N+](=O)[O-])c(C)n1` [Example 22], the ED50 in data set [1] (iv) is 3 to 10 mg/kg; in data set [2] (iv), 3 mg/kg.
Regarding `Cc1cc(NCc2ccc(S(N)(=O)=O)cc2)c([N+](=O)[O-])c(C)n1` [Example 23], the ED50 lay within 1 to 3 mg/kg in data set [1] (iv) and 3 to 10 mg/kg in data set [2] (iv). The LD50 at 168 h in “in vivo” was in the range of 600 to 1200 mg/kg.
Consider `COc1ccc(CNc2cc(C)nc(C)c2[N+](=O)[O-])cc1` [Example 24], for which the ED50 in data set [1] (iv) was in the range of 1 to 3 mg/kg; in data set [2] (iv), 0.3 to 1 mg/kg; in data set [3] (iv), 1 to 3 mg/kg. Moreover, the LD50 at 168 h in “in vivo” was above 600 mg/kg.
Turning to `Cc1cc(NCCF)c([N+](=O)[O-])c(C)n1` [Example 32], the ED50 is 3 to 10 mg/kg in data set [1] (iv), 1 mg/kg in data set [2] (iv) and 1 to 3 mg/kg in data set [3] (iv). The compound further gave an LD50 at 168 h in the data set “in vivo” of 150 to 300 mg/kg.
Take `Cn1c(=O)c2[nH]cnc2n(C)c1=O` [theophylline-ethylene diamine, reference compound]: the ED50 was 8.3 mg/kg in data set [1] (iv), 10 to 20 mg/kg in data set [1] (i.d. (intraduodenal)), 5.6 mg/kg in data set [2] (iv) and 7.3 mg/kg in data set [3] (iv).
